Target: T1, CODH ICh (Carboxydothermus hydrogenoformans, UniProt P59934)
T1 sequence (P59934 2-636): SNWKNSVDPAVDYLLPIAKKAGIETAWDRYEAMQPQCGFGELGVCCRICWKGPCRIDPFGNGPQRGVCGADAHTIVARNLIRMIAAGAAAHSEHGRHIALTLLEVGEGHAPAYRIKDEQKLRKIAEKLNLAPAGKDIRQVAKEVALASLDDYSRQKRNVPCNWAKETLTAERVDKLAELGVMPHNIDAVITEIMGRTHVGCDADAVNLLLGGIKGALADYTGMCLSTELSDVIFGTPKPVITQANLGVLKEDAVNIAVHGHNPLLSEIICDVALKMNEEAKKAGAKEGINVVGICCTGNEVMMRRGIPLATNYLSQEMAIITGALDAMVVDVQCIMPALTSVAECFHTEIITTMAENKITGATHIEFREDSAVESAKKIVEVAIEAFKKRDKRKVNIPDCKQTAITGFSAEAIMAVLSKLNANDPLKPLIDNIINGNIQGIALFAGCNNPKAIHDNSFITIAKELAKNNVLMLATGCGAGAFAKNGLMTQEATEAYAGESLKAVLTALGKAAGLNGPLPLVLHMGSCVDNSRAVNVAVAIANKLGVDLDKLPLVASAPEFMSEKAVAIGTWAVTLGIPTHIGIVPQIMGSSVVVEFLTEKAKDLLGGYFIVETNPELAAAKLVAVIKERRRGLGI
Format: biochemical

For N#CO [cyanate], the “chronoamperometry, inactivation half-time at 6.7 mM cyanate” value was ~ 90 seconds.

Source: publication PMC3955222 (Chembiochem : a European journal of chemical biology, 2013)
